We go through 8 compounds from patent US8088769B2, “Cyanopyrimidinones” (Boehringer Ingelheim International GmbH, priority 2004, dated 2012).

The target of one assay is T1, PDE2A (Homo sapiens, UniProt O00408).
T1 construct: made in house; host or cells: Sf9 (baculovirus, pFASTBAC)
In words: PDE inhibition, recombinant PDE2A (SPA). Type of assay: biochemical. The following applies: human isoenzyme. The source says: (§1) Recombinant PDE1C (GenBank/EMBL Accession Number: NM_005020, Loughney et al. J. Biol. Chem. 1996 271, 796-806), PDE2A (GenBank/EMBL Accession Number: NM_002599, Rosman et al. Gene 1997 191, 89-95), PDE3B (GenBank/EMBL Accession Number: NM_000922, Miki et al. Genomics 1996, 36, 476-485), PDE4B (GenBank/EMBL Accession Number: NM_002600, Obernolte et al. Gene. 1993, 129, 239-247), PDE5A (GenBank/EMBL Accession Number: NM_001083, Loughney et al. Gene 1998, 216, 139-147), PDE7B (GenBank/EMBL Accession Number: NM_018945, Hetman et al. Proc. Natl. Acad. Sci. U.S.A. 2000, 97, 472-476), PDE8A (GenBank/EMBL Accession Number: AF—056490, Fisher et al. Biochem. Biophys. Res. Commun. 1998, 246, 570-577), PDE9A (Fisher et al., J. Biol. Chem., 1998, 273 (25): 15559-15564), PDE10A (GenBank/EMBL Accession Number: NM_06661, Fujishige et al. J Biol Chem. 1999, 274, 18438-45), PDE11A (GenBank/EMBL Accession Number: NM_016953, Fawcett et al. Proc. Natl. Acad. Sci. 2000, 97, 3702-3707) were expressed in Sf9 cells with the aid of the pFASTBAC baculovirus expression system (GibcoBRL).
(§2) The test substances are dissolved in 100% DMSO and serially diluted to determine their in vitro effect on PDE9A. Typically, serial dilutions from 200 μM to 1.6 μM are prepared (resulting final concentrations in the assay: 4 μM to 0.032 μM). 2 μl portions of the diluted substance solutions are introduced into the wells of microtitre plates (Isoplate; Wallac Inc., Atlanta, Ga.). Then 50 μl of a dilution of the PDE9A preparation described above are added. […] The plates are then measured for 30 s per well in a Microbeta scintillation counter (Wallac Inc., Atlanta, Ga.). IC50 values are determined from the graphical plot of the substance concentration versus the percentage inhibition.
(§3) The in vitro effect of test substances on recombinant PDE3B, PDE4B, PDE7B, PDE8A, PDE10A and PDE11A is determined by the assay protocol described above for PDE9A with the following adaptations: the substrate used is [5′,8-^3H]adenosine 3′,5′-cyclic phosphate (1 μCi/μl; Amersham Pharmacia Biotech., Piscataway, N.J.). […]

In the next assay the target is T2, PDE10A (Homo sapiens, UniProt Q9Y233).
T2 construct: made in house; host or cells: Sf9 (baculovirus, pFASTBAC)
In words: PDE inhibition, recombinant PDE10A (SPA). The class given is biochemical. To be noted: human isoenzyme.
Excerpt: as §1, §2, §3

The target in a further assay is T3, PDE11A (Homo sapiens, UniProt Q9HCR9).
T3 construct: made in house; host or cells: Sf9 (baculovirus, pFASTBAC)
In words: PDE inhibition, recombinant PDE11A (SPA). Type of assay: biochemical. To be noted: human isoenzyme, read-out: IC50 PDE11.
Excerpt: as §1, §2, §3

In another assay the target is T4, PDE1C (Homo sapiens, UniProt Q14123).
T4 construct: made in house; host or cells: Sf9 (baculovirus, pFASTBAC)
Kind of assay: PDE inhibition, recombinant PDE1C (SPA). Type of assay: biochemical. The following applies: human isoenzyme.
Excerpt: as §1, §2, §3

In a further assay the target is T5, PDE3B (Homo sapiens, UniProt Q13370).
T5 construct: made in house; host or cells: Sf9 (baculovirus, pFASTBAC)
In words: PDE inhibition, recombinant PDE3B (SPA). The following applies: human isoenzyme. Type of assay: biochemical.
Excerpt: as §1, §2, §3

The target of another assay is PDE4B (Homo sapiens, UniProt Q07343). Kind of assay: PDE inhibition, recombinant PDE4B (SPA). Type of assay: biochemical. To be noted: human isoenzyme.
Excerpt: as §1, §2, §3

The next assay concerns the target T6, PDE7B (Homo sapiens, UniProt Q9NP56).
T6 construct: made in house; host or cells: Sf9 (baculovirus, pFASTBAC)
Kind of assay: PDE inhibition, recombinant PDE7B (SPA). To be noted: human isoenzyme. The class given is biochemical.
Excerpt: as §1, §2, §3

The target in the next assay is T7, PDE8A (Homo sapiens, UniProt O60658).
T7 construct: made in house; host or cells: Sf9 (baculovirus, pFASTBAC)
Kind of assay: PDE inhibition, recombinant PDE8A (SPA). Type of assay: biochemical. To be noted: human isoenzyme.
Excerpt: Recombinant PDE1C (GenBank/EMBL Accession Number: NM_005020, Loughney et al. J. Biol. Chem. 1996 271, 796-806), PDE2A (GenBank/EMBL Accession Number: NM_002599, Rosman et al. Gene 1997 191, 89-95), PDE3B (GenBank/EMBL Accession Number: NM_000922, Miki et al. Genomics 1996, 36, 476-485), PDE4B (GenBank/EMBL Accession Number: NM_002600, Obernolte et al. Gene. 1993, 129, 239-247), PDE5A (GenBank/EMBL Accession Number: NM_001083, Loughney et al. Gene 1998, 216, 139-147), PDE7B (GenBank/EMBL Accession Number: NM_018945, Hetman et al. Proc. Natl. Acad. Sci. U.S.A. 2000, 97, 472-476), PDE8A (GenBank/EMBL Accession Number: AF—056490, Fisher et al. Biochem. Biophys. Res. Commun. […]
The test substances are dissolved in 100% DMSO and serially diluted to determine their in vitro effect on PDE9A. […] The plates are then measured for 30 s per well in a Microbeta scintillation counter (Wallac Inc., Atlanta, Ga.). IC50 values are determined from the graphical plot of the substance concentration versus the percentage inhibition.
as §3

Assay [1] concerns the target T8, PDE9A (Homo sapiens, UniProt O76083). Kind of assay: PDE inhibition, recombinant PDE9A (SPA). Set-up: made in house; host or cells: Sf9 (baculovirus, pFASTBAC). Type of assay: biochemical. The following applies: human isoenzyme. On the procedure: The dilution of the PDE9A preparation is chosen so that less than 70% of the substrate is converted during the subsequent incubation (typical dilution: 1:10 000; dilution buffer: 50 mM Tris/HCl pH 7.5, 8.3 mM MgCl2, 1.7 mM EDTA, 0.2% BSA). […] The plates are then measured for 30 s per well in a Microbeta scintillation counter (Wallac Inc., Atlanta, Ga.). IC50 values are determined from the graphical plot of the substance concentration versus the percentage inhibition.

The target of the next assay is T9, Murine PDE9A (Mus musculus, UniProt O70628).
T9 sequence (O70628 1-534): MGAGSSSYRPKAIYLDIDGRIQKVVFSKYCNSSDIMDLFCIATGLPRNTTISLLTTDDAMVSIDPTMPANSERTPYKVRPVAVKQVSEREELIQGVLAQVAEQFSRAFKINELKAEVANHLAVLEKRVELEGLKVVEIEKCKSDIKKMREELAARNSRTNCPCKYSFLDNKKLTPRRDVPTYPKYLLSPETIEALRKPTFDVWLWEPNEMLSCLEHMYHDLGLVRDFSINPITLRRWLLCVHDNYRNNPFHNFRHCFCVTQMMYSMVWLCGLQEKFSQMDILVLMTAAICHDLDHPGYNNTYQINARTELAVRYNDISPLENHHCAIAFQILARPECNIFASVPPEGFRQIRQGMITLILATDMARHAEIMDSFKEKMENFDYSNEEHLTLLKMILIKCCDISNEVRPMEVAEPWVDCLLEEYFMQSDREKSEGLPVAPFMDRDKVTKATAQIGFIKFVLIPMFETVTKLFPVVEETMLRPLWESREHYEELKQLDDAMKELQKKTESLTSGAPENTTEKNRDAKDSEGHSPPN
To be noted: concentrations below 200 μM; cited from earlier work.

For assay [2], the target named is T8, PDE9A. The following applies: concentrations of up to 100 μM; cited from earlier work.

T8 sequence (O76083 whole entry): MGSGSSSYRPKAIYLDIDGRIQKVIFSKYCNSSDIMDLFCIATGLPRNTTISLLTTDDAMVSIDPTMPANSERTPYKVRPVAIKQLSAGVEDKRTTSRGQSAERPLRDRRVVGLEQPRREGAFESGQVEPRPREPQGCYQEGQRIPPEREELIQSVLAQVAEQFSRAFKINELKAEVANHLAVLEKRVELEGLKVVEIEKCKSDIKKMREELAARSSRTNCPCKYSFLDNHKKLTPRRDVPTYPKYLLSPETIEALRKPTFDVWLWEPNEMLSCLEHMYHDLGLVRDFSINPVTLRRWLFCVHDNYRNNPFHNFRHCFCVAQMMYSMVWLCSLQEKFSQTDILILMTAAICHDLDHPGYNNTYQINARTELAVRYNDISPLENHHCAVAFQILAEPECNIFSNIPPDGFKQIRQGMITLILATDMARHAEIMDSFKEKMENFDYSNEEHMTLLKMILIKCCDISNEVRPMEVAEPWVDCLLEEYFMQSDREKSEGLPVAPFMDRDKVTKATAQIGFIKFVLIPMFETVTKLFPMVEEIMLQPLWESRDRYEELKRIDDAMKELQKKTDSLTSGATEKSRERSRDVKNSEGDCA
T1 sequence (O00408 whole entry): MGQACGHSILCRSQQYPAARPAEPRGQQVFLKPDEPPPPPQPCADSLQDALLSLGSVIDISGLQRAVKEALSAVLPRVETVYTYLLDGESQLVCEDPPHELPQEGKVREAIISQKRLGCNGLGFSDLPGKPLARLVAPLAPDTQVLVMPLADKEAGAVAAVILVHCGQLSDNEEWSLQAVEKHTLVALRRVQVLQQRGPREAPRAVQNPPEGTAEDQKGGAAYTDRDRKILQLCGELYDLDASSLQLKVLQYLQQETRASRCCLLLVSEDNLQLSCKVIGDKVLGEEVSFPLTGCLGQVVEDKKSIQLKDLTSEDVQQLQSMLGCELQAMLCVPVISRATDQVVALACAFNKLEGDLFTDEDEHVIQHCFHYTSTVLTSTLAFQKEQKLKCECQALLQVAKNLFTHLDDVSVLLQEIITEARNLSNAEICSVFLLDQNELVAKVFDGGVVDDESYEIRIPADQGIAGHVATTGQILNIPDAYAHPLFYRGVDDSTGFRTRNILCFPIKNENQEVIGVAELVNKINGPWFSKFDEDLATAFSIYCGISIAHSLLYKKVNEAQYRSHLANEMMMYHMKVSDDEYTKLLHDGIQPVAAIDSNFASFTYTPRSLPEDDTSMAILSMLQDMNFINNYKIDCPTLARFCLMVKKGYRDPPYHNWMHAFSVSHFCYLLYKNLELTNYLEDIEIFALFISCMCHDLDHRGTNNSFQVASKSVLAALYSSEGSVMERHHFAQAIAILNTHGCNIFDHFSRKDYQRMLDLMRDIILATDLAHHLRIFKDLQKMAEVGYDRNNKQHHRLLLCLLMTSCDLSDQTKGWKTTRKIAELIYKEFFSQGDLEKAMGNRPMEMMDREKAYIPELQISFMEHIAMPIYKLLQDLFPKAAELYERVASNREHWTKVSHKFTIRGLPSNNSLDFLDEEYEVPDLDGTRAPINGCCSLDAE
Chain of PDE4B (Q07343 212-736 limits assumed): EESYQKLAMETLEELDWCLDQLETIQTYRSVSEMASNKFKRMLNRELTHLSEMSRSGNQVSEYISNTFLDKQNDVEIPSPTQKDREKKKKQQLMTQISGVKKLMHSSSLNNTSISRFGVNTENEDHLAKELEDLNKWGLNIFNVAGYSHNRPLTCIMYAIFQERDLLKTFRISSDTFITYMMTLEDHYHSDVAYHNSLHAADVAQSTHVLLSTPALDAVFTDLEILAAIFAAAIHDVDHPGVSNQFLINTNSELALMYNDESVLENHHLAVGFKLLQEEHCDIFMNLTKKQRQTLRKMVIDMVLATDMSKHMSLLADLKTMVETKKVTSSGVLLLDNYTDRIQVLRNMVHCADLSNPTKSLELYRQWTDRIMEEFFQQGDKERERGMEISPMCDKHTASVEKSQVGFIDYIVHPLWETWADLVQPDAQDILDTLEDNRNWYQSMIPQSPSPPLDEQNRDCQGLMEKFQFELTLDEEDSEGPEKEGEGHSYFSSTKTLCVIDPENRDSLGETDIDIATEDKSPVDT
T5 sequence (Q13370 whole entry): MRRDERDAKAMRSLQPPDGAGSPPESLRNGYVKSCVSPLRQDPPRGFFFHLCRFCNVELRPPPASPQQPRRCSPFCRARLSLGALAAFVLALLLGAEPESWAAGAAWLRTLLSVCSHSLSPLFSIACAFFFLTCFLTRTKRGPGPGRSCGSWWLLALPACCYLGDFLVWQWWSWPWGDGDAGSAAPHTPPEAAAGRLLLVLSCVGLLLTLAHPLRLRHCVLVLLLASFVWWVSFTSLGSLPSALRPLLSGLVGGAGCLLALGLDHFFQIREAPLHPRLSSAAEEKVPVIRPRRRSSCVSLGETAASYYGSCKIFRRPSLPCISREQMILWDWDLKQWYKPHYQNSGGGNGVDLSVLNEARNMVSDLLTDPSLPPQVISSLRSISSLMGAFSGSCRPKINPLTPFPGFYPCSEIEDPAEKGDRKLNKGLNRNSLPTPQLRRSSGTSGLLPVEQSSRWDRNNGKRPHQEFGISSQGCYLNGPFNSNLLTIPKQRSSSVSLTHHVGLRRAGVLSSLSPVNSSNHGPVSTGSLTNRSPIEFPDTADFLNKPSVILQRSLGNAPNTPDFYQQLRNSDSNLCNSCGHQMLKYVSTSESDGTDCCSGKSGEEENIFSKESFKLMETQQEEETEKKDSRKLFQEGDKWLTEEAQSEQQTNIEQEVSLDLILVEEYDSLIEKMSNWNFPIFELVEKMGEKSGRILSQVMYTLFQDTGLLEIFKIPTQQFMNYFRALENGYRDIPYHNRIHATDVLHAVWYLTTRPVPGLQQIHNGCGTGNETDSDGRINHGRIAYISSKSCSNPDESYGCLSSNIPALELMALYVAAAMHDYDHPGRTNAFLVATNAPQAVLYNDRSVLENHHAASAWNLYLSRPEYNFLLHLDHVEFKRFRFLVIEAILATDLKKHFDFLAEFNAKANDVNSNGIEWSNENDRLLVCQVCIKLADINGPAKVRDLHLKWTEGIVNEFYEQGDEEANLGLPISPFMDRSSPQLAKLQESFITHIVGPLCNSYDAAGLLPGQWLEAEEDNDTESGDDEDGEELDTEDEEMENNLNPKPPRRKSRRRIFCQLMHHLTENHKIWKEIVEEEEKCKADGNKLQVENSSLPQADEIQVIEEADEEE
T3 sequence (Q9HCR9 445-933 limits assumed): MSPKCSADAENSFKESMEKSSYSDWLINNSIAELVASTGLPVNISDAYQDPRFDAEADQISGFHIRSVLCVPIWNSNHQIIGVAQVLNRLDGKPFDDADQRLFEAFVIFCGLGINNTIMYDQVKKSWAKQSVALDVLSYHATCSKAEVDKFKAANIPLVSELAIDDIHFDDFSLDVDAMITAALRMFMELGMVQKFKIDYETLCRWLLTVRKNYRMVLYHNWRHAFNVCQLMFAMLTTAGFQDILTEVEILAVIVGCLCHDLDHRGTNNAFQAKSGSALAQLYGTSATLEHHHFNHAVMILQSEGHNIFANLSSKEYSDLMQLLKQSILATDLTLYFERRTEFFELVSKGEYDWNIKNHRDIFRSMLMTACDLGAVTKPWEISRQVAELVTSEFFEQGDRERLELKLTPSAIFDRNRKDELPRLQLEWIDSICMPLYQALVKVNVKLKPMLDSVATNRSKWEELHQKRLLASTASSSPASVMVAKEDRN
T6 sequence (Q9NP56 whole entry): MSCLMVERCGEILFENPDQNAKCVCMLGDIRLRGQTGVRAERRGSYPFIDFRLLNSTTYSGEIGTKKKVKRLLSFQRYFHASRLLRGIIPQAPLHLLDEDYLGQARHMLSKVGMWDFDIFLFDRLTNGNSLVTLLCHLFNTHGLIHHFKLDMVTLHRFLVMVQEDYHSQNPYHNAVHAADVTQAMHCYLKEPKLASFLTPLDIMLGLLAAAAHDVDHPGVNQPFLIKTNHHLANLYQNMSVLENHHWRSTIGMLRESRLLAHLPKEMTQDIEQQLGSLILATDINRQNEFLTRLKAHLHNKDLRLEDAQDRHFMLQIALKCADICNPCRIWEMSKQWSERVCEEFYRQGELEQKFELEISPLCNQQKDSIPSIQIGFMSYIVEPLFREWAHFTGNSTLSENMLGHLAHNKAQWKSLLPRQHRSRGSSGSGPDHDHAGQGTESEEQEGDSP
T2 sequence (Q9Y233 1-779 isoform Q9Y233-1): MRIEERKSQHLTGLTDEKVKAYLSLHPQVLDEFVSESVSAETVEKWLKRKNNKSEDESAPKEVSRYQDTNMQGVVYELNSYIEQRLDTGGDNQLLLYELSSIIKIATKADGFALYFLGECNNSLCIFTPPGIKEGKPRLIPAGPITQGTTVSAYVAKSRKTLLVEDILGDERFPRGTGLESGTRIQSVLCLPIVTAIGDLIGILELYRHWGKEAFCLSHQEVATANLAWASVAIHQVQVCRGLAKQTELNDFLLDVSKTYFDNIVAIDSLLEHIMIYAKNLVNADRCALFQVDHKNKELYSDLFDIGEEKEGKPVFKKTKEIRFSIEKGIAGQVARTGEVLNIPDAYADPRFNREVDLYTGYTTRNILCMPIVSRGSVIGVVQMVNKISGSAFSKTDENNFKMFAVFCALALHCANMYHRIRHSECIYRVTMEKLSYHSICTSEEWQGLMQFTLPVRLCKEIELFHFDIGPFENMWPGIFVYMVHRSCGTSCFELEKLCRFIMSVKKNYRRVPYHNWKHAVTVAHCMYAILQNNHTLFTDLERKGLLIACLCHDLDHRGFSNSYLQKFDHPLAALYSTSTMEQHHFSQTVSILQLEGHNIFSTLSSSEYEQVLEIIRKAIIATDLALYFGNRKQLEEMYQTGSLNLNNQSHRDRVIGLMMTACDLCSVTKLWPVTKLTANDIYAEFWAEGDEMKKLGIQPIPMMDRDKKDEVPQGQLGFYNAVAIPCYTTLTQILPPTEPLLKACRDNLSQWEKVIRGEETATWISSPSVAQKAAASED

On to `COc1ccc(-c2ccccc2Cc2nc(N3CCC(CCO)CC3)c(C#N)c(=O)[nH]2)cn1` [Example 38, 4-[4-(2-Hydroxyethyl)piperidin-1-yl]-2-[2-(6-methoxypyridin-3-yl)benzyl]-6-oxo-1,6-dihydropyrimidine-5-carbonitrile], for which the IC50 at PDE2A, on PDE10A, on PDE11A, at PDE1C, on PDE3B and on PDE4B was over 4 µM in each case. The IC50 (in general, the midpoint of a concentration-inhibition curve) at PDE7B turned out to be 2.2 µM.

Consider `COc1ccc(-c2ccccc2Cc2nc(N3CCC[C@H]3CO)c(C#N)c(=O)[nH]2)cn1` [Example 112], for which the IC50 at PDE8A, at PDE2A, on PDE10A, on PDE11A, at PDE1C and at PDE3B was over 4 µM each time. In addition, the IC50 was 0.005 µM at PDE9A [1], over 4 µM at PDE4B and over 4 µM at PDE7B.

`COc1ccc(-c2ccccc2Cc2nc(N3CCCC3)c(C#N)c(=O)[nH]2)cn1` [Example 113]: the IC50 on PDE8A was over 4 µM; at PDE2A it was over 4 µM; on PDE10A, over 4 µM; on PDE11A, 1.5 µM; at PDE1C, over 4 µM; on PDE3B, over 4 µM. The IC50 on PDE9A [1] is 0.015 µM; at PDE4B it was over 4 µM; at PDE7B, over 4 µM.

Turning to `CC(C)Cn1c(=O)n(C)c(=O)c2[nH]cnc21` [IBMX], the “inhibition of murine PDE9A” value on Murine PDE9A is “not inhibited”. For the same compound, the “inhibition on the isolated enzyme (human PDE9A)” value (“inhibition … (human PDE9A)” below) on PDE9A [2] is given as “no inhibition”.

Take `CC(=O)Nc1ccc(-c2c[nH]c(=O)cn2)cc1` [SKF94120]: on PDE9A [2], the “inhibition … (human PDE9A)” value is given as “no inhibition”.

As for `OCCN(CCO)c1nc(N2CCCCC2)c2nc(N(CCO)CCO)nc(N3CCCCC3)c2n1` [dipyridamole], at PDE9A [2], the “inhibition … (human PDE9A)” value is “no inhibition”.

On to `COc1ccc(C2CNC(=O)C2)cc1OC1CCCC1` (stereo not shown) [rolipram], for which the “inhibition … (human PDE9A)” value at PDE9A [2] is “no inhibition”.

With `CCOC(=O)C1=C[C@]2(CC)CCCN3CCc4c(n1c1ccccc41)[C@@H]32` [vinpocetine], the “inhibition … (human PDE9A)” value at PDE9A [2] is “no inhibition”.
